# Results taken from PMC10916623, “Tissue distribution and pharmacokinetics of isoxanthohumol from hops in rodents” (Food Science & Nutrition, 2023).
# Marks after values point to notes of the source that are not given here.
# Assay: Tissue distribution after single-gavage administration of IXA to mice
# Format: in vivo, C57/BL6 mice
# Details: mice; for IXA accumulation, single-ingestion test (at 24 h): single IXA 50 mg/kg BW
# Procedure: Six‐week‐old male C57/BL6 mice (initial BW: 19–24 g; Japan SLC, Shizuoka, Japan) were housed in a room maintained at 23–26°C with a 12‐h light–dark cycle. During the 1‐week acclimatization period, they were allowed free access to a commercial diet (Oriental Yeast Co., Tokyo, Japan) and water. Two days before the experiment, they were fed AIN‐93M (Oriental Yeast Co.). Before drug administration, they were fasted for 20 h, but had free access to water. IXA dissolved in 3% hydroxypropyl‐β‐cyclodextrin and 5% ethanol (Fujifilm; Wako Pure Chemical Corp., Osaka, Japan) was named the injection solution and administered (50 mg/kg BW) to mice intragastrically using a gastric feeding tube (AS ONE, Osaka, Japan). Blood, brain, thymus, heart, lung, liver, spleen, pancreas, kidney, and gastrocnemius muscle were collected 0.5, 1, 2, 4, 8, 12, 24, and 48 h after administration. We also set up a control group, and mice in this group were sacrificed just before we started administering IXA at 0 h. At 4 h after administration, mice were allowed free access to AIN‐93 M. Plasma was isolated by centrifugation at 17 × 10^3 m/s^2 (5911, Kubota, Tokyo, Japan) for 5 min at 4°C. All tissues were dissected, weighed, and immediately frozen in liquid nitrogen. All samples were stored at −80°C until analysis.
# Tissue sample deconjugation was performed as described in a previous report with slight modifications (Tanaka et al., [2022]). Tissues were homogenized in phosphate‐buffered saline (pH 7.4), which was nine times the tissue volume. The tissue homogenate was incubated in 50 mmol/L ascorbic acid (one‐fifth the volume of phosphate‐buffered saline) and 1.67 μkat/100 μL of β‐glucuronidase type H‐1 in 0.1 mol/L sodium acetate buffer (pH 4.7, nine times the volume of the sample) for 2 h at 37°C. Then, 2.4 nmol of QTM was added to samples as an internal standard. The supernatant was isolated by centrifugation at 17 × 10^3 m/s^2 (Kubota) for 5 min at 4°C. Then, methanol (Kanto Kagaku, 25183‐2B) was added to the pellets, and they were shaken for 1 min. The methanol layer and pellets were separated by centrifugation at 17 × 10^3 m/s^2 (Kubota, RY1071‐A000) for 5 min at 4°C. Methanol extraction was repeated three times. Finally, methanol extracts were mixed with the supernatant (the composition of the mixture was 30% methanol) and then applied to an Inert Sep C8 (200 mg/3 mL; GL Sciences, Tokyo, Japan; 5010‐61082) cartridge. The cartridge was preconditioned with 6 mL of 2% acetic acid in methanol, and then 9 mL of 2% acetic acid in water. The extracted tissue was passed through the cartridge, and it was washed with 5 mL of 2% acetic acid in 30% methanol aq. The flavonoids were eluted with 10 mL of 2% acetic acid in methanol.
# The plasma and tissue extracts were evaporated using a Centrifugal Evaporator (EYERA, Tokyo, Japan, CVE‐3000). The samples were stored at −80°C until the next day. Then, the samples were dissolved in 120 μL of a mobile phase solution and divided into two test tubes. The first sample was injected into the HPLC with an ultraviolet detection system (Shimadzu, Kyoto, Japan).
# IXA and 8‐PN concentrations were determined by their respective standard curves using an internal standard method. A Cadenza 3‐μm CD‐C18 HPLC column (CD005, 150 × 4.6 mm; Imtakt Corporation, Kyoto, Japan) was equipped for HPLC (λ = 295 nm). The mobile phase consisted of methanol:water:acetic acid (60:35:5, v/v/v). The flow rate was set at 1.0 mL/min. […] Because clear peaks over 4.5 pmol/sample were detected for IXA and 8‐PN by visual evaluation, we determined that these concentrations were the peak limit of detections for each flavonoid. We applied calibration curves in the IXA/QTM concentration ratio range of 0.007–35.1 (R ^2 = .9955).
# [1] = kidney, single oral IXA 50 mg/kg BW
# [2] = lung, single oral IXA 50 mg/kg BW
substance,measurement,setting,value
"4,7‐dihydroxy‐5‐methoxy‐8‐prenylflavanone [IXA]",IXA detection in the brain,"brain, single oral IXA 50 mg/kg BW, data not shown",not detected
same,time of second peak of IXA,"heart, single oral IXA 50 mg/kg BW",4 h
same,C max IXA,"heart, single oral IXA 50 mg/kg BW, measured at 0.5 h","3.3 ± 1.0^b,c nmol/g of tissue"
same,"IXA accumulation, single-ingestion test (at 24 h)",kidney,4.6 ± 0.3 nmol/g of tissue
same,time of second peak of IXA,[1],8 h
same,IXA level at 48 h after ingestion,[1],2.67 ± 0.41 nmol/g tissue
same,C max IXA,"kidney, single oral IXA 50 mg/kg BW, measured at 1 h","25.5 ± 5.3^a,b nmol/g of tissue"
same,"IXA accumulation, single-ingestion test (at 24 h)",liver,3.2 ± 1.3 nmol/g of tissue
same,IXA level at 48 h after ingestion,"liver, single oral IXA 50 mg/kg BW",0.14 ± 0.12 nmol/g tissue
same,C max IXA,"liver, single oral IXA 50 mg/kg BW, measured at 1 h",76.2 ± 32.4^a nmol/g of tissue
same,"IXA accumulation, single-ingestion test (at 24 h)",lung,1.7 ± 1.5 nmol/g of tissue
same,time of second peak of IXA,[2],2 h
same,IXA level at 48 h after ingestion,[2],0.05 ± 0.04 nmol/g tissue
same,C max IXA,"lung, single oral IXA 50 mg/kg BW, measured at 0.5 h","5.3 ± 3.3^b,c nmol/g of tissue"
same,"IXA accumulation, single-ingestion test (at 24 h)",muscle,0.1 ± 0.1 nmol/g of tissue
same,C max IXA,"muscle, single oral IXA 50 mg/kg BW, measured at 0.5 h","3.4 ± 1.3^b,c nmol/g of tissue"
same,time of second peak of IXA,"pancreas, single oral IXA 50 mg/kg BW",12 h
same,C max IXA,"pancreas, single oral IXA 50 mg/kg BW, measured at 0.5 h","22.4 ± 2.1^b,c nmol/g of tissue"
same,time of second peak of IXA,"skeletal muscle, single oral IXA 50 mg/kg BW",12 h
same,"IXA accumulation, single-ingestion test (at 24 h)",spleen,1.1 ± 1.0 nmol/g of tissue
same,time of second peak of IXA,"spleen, single oral IXA 50 mg/kg BW",4 h
same,C max IXA,"spleen, single oral IXA 50 mg/kg BW, measured at 0.5 h","6.5 ± 2.2^b,c nmol/g of tissue"
same,"IXA accumulation, single-ingestion test (at 24 h)",thymus,3.6 ± 3.1 nmol/g of tissue
same,time of second peak of IXA,"thymus, single oral IXA 50 mg/kg BW",4 h
same,C max IXA,"thymus, single oral IXA 50 mg/kg BW, measured at 0.5 h","6.5 ± 4.1^b,c nmol/g of tissue"
